Test [1] concerns DoHH2. Kind of test: CellTiter-Glo proliferation/viability assay. The format is cell-based, human. The following applies: Homo sapiens, DOHH-2. A general note: In ATP-based viability assays light output follows the ATP content of the culture.
The test system of test [2] is Ramos. As to the kind of experiment: CellTiter-Glo proliferation/viability assay. The test is classed as cell-based, human. The following applies: Homo sapiens, Ramos.
In test [3] the test system is PLCγ2 phosphorylation in Ramos cells. As to the kind of experiment: PLCγ2 phosphorylation by Western blotting. The format is cell-based, human. The following applies: anti-IgM/H2O2 stimulation, Tyr1217. How it is done:
Ramos cells were cultured in RPMI 1640 media with 10% FBS and were starved overnight (18 h) in 1% FBS containing media and on the next day pretreated with inhibitor for 2 h before stimulation. Cells were stimulated to induce BTK network dependent signal transduction pathways using mouse anti-human IgM (final concentration 10 ug/ml; Invitrogen) antibodies and 3.3 mM H2O2 mixture for 2 minutes followed by F(Ab) fragment that cross-linked the anti-IgM antibody (final concentration 10 ug/ml), and 3.3 mM H2O2 for 8 minutes. Cell lysates were prepared in lysis buffer containing protease and phosphatase inhibitors, quantified using the BCA protein assay kit (Pierce) and used for Western blotting. Antibodies specifically targeted to the molecules of interest, PLCγ2 phosphorylated at Tyr1217 and total PLCγ2, (Cell Signaling Technology) were used in a standard Western blotting procedure.
Phosphorylation of PLCγ2 at Tyr1217 along with Tyr753, Tyr759 and Tyr1197 is correlated with increased PLCγ2 activity. The readout for BTK network signaling was inhibition of phosphorylation of PLCγ2 induced by the anti-IgM treatment.
(In general: In western blotting, separated proteins are transferred to a membrane and probed.)

Test [4] has the same test system. As to the kind of experiment: PLCγ2 phosphorylation by flow cytometry. The format is cell-based, human. As to conditions: Homo sapiens, flow cytometry, anti-phospho PLCγ2 (Tyr1217), four concentrations, read-out: Inhibition of phosphorylation of PLC-γ2 EC50. In outline:
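Ramos cells starved 18 h in 1% FBS, pretreated with inhibitor 2 h, then stimulated with anti-IgM (10 ug/ml final) plus 3.3 mM H2O2 for 2 min, then cross-linking F(ab) (10 ug/ml) plus H2O2 for 8 min. Fixed, permeabilized cells stained with PE anti-phospho-PLCγ2 (Tyr1217 or Tyr759), dead cells gated out; ED50 from geometric mean fluorescence over four inhibitor concentrations.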
(In flow cytometry, cells or beads pass a laser one at a time.)

The subject of test [5] is phosphorylation of SFKs in Ramos cells. Kind of test: SFK phosphorylation (Tyr 416) by Western blotting. The test is classed as cell-based, human. As to conditions: pretreated 2 hours. How it is done:
Ramos cell lysates from stimulated and unstimulated cells were analyzed for the levels of phosphorylated SRC family members. As described in Example 82 (above), cells were pretreated for 2 hours with an amino naphthyridinones and then stimulated with anti-IgM antibody and H2O2, protein lysates were prepared, quantified and used for Western blotting. A commercially available antibody that detects Src phosphorylated at Tyr 416 (Cell Signalling) and may cross-react with other Src family members such as Lyn, Fyn, Lck, Yes and Hck when phosphorylated at equivalent sites was used for Western blot analysis. The molecular weights of SFK family members are quite similar (in the 55-60 kDa range) and different family members cannot be resolved by the conditions used for the Western blot. […] The procedure can be similarly adapted for flow cytometric analysis as with the PLC-γ2 assay in Example 82. Ramos cells were incubated with Compound 1 for 2 hrs in RPMI media with 5% FBS prior to stimulation stimulated with H2O2/anti-IgM/F(Ab) for 10 minutes. Cells were evaluated by FACS analysis using anti-pSRC antibody and FITC-conjugated goat anti-rabbit secondary antibody following overnight storage at 4° C. in BD perm/wash buffer.

The target of test [6] is T1, Lyn (Homo sapiens (Human), UniProt P07948). The following applies: read-out: Lyn IC50.
T1 sequence (P07948 whole entry): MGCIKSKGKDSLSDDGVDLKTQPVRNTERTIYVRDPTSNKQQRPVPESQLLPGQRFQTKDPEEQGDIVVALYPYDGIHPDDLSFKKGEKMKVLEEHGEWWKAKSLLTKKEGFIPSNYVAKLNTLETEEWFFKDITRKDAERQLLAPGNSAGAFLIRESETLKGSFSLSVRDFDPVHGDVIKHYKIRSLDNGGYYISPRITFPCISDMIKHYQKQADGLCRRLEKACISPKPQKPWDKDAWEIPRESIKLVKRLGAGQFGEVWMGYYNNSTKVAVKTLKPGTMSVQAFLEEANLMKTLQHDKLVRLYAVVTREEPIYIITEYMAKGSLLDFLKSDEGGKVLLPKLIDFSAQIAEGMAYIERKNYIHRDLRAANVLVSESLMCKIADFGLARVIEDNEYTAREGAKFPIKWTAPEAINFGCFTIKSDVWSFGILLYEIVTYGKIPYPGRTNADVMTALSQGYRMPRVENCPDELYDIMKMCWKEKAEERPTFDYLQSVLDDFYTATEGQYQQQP
Test [7] deals with DoHH2 cells. As to conditions: treated 24 hours.
Test [8] deals with Src (Homo sapiens (Human), UniProt P12931). Kind of test: biochemical.
Chain of Src (P12931 whole entry, looked up): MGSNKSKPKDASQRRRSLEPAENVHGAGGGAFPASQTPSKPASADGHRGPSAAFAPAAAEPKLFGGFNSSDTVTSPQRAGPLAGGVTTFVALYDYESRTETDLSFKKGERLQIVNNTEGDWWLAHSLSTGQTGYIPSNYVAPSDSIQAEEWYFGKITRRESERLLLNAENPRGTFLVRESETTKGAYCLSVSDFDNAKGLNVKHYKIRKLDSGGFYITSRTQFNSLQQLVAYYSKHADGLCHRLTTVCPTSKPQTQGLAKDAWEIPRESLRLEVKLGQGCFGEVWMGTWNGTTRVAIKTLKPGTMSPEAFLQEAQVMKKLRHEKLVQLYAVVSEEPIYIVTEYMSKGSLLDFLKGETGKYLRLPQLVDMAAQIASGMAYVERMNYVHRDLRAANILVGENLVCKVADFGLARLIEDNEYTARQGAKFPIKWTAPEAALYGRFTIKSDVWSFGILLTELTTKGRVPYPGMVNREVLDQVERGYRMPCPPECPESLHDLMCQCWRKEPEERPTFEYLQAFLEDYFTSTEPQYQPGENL
Test [9] addresses T1, Lyn. Kind of test: biochemical.
Test [10] addresses BTK (Homo sapiens (Human), UniProt Q06187).
Test [11] has as its system SuDHL6. As to the kind of experiment: Proliferation/viability assay. The following applies: Homo sapiens, SU-DHL-6; Table 10; B Lymphoma; read-out: Effect on Tumor Cell Growth EC50, SuDHL6. The test is classed as cell-based.
The test system of test [12] is RPMI8226. Kind of test: Proliferation/viability assay. The test is classed as cell-based. As to conditions: Homo sapiens, RPMI-8226; Table 10; Myeloma; read-out: Effect on Tumor Cell Growth EC50, RPMI 8226.
Test [13] has as its system PC3. Kind of test: Proliferation/viability assay. The format is cell-based. As to conditions: Homo sapiens, PC-3; Table 10; Prostate Ca; read-out: Effect on Tumor Cell Growth EC50, PC3.
The test system of test [14] is DoHH2. The following applies: cited from earlier work.
Test [15] deals with Ramos. As to conditions: cited from earlier work.

The source of these data is patent US9714247B2, “Multiple kinase pathway inhibitors” (Mannkind Corporation, priority 2012, dated 2017).

Usually pIC50 stands for −log10 of the IC50, conventionally taken in molar units.

SMILES strings stand for the structures. pEC50, pIC50: −log10 of the molar value. Read-outs that look alike come from different tables or passages of the source.

Chain of BTK (Q06187 whole entry): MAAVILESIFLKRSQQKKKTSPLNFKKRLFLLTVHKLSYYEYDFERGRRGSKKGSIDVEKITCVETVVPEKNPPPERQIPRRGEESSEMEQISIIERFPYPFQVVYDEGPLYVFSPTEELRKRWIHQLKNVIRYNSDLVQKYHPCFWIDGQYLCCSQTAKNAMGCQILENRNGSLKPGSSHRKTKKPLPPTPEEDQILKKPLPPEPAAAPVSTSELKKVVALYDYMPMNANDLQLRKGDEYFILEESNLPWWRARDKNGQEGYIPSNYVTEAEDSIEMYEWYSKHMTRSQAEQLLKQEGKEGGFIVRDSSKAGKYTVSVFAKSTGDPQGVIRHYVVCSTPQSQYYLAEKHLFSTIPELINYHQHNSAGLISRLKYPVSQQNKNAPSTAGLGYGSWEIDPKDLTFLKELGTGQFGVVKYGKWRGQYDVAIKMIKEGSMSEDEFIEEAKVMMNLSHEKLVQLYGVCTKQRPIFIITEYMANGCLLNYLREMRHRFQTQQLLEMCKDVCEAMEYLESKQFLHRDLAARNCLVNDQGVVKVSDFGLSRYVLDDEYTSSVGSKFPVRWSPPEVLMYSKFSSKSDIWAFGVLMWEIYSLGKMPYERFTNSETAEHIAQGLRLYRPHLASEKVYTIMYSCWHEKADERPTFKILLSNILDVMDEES

For `CCN(CC)CCOc1ccc(Nc2cc3c(cn2)cc(-c2ccccc2)c(=O)n3C2CCOCC2)nc1` [Compound 70, 7-(5-(2-(diethylamino)ethoxy)pyridin-2-ylamino)-3-phenyl-1-(tetrahydro-2H-pyran-4-yl)-1,6-naphthyridin-2(1H)-one], the pEC50 in [1] (48 hrs, read-out: DoHH2 EC50) was > 6.00; in test [1] (Table 4, DoHH2 cells, read-out: EC50 (Proliferation)), > 6.00; in test [2] (48 hrs, read-out: Ramos EC50), < 5.00; in [4], 6.48. In addition, the “Inhibition of PLCγ2 phosphorylation (Western blot)” value in test [3] was “observed this inhibition”. Besides, the “Inhibition of phosphorylation of SFKs (Western blot)” value in [5] is “dose-dependent decrease of phosphorylation of SFKs”. The pIC50 in [6], in [8], in test [9], in test [10] and in test [10] (read-out: BTK IC50) was 6.00 to 7.00 throughout. Also, the “Effect on Cell Cycle” value in [7] was “G1 Arrest”.
As to `C=CC(=O)N1CCC[C@@H](n2nc(-c3ccc(Oc4ccccc4)cc3)c3c(N)ncnc32)C1` [PCI-32765, ibrutinib], the pEC50 in test [1] (Table 10, B Lymphoma, read-out: Effect on Tumor Cell Growth EC50, DOHH2) was 5.55; in test [2] (Table 10, B Lymphoma, read-out: Effect on Tumor Cell Growth EC50, Ramos), < 5.00; in test [11] it was 5.26; in test [12], < 5.00; in test [13], < 5.00. Besides, the “Response of DoHH2 to known drugs” value in [14] is recorded as “responds”. The “Resistance of Ramos to known kinase inhibitors” value in test [15] was “resistant”.
